Measured values taken from US20250313535A1, “ALPHA 4 BETA 7 INTEGRIN MODULATORS AND USES THEREOF” (DICE MOLECULES SV, INC., priority 2022, published 2025).
Read-outs that look alike come from different tables or passages of the source.

What was measured:
Format in all cases: cell-based
[1] = molecular target: T1, α4β7 integrin (Homo sapiens (Human), UniProt P13612+P26010); test: Integrin Adhesion Assay: Protocol 1 (MAdCAM-coated plate, RPMI-8866 cells, CellTiter GLO readout)
In short: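 RPMI-8866 cells (2×10^6 per mL) added with compounds (1% DMSO) to MAdCAM-coated wells blocked in HEPES/NaCl buffer with 1 mM MnCl2, 0.1 mM CaCl2, 1% BSA; 1 h at 37° C, 5% CO2. After four washes, bound cells read by CellTiter GLO luminescence; % inhibition vs DMSO and control wells, 4-parameter fit.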

[2] = molecular target: T1, α4β7 integrin; test: Integrin Adhesion Assay: Protocol 4 (MAdCAM-coated plate, RPMI-8866 cells with stable LOF mutation of the ITGB1 gene)
In short: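 RPMI-8866 cells with CRISPR/Cas9 knockout of ITGB1 (2×10^6/mL) were added to MAdCAM-coated wells with compound (1% DMSO) in HEPES/NaCl buffer with 1 mM MnCl2, 0.1 mM CaCl2 and 1% BSA, then incubated 1 h at 37 °C. After four washes, adherent cells were quantified by CellTiter-Glo luminescence. Percent inhibition versus DMSO and control compound was fitted to 4-parameter curves.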

[3] = molecular target: α4β1 integrin (Homo sapiens (Human), UniProt P05556+P13612); test: Integrin Adhesion Assay: Protocol 5 (VCAM-coated plate, RPMI-8866 cells with stable LOF mutation of the ITGB7 gene)
In short: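 RPMI-8866 B cells with CRISPR/Cas9 ITGB7 knockout (clonal, verified by flow cytometry) adhered to VCAM-coated wells for 1 h at 37° C in HEPES/NaCl buffer with 1 mM MnCl2, 0.1 mM CaCl2, 1% BSA, 1% DMSO. Bound cells quantified by CellTiter-Glo luminescence after washing; % inhibition versus DMSO and control, 4-parameter fit.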

[4] = RPMI-8866 cells with stable LOF mutation of the ITGB1 gene, read-out: Mean IC50 α4β7 KO^a
[5] = RPMI-8866 cells with stable LOF mutation of the ITGB7 gene, read-out: Mean IC50 α4β1 KO^b
[6] = Protocol 4, RPMI-8866 cells with LOF mutation of ITGB1, MAdCAM, read-out: Mean IC50 α4β7 KO
[7] = Protocol 5, RPMI-8866 cells with LOF mutation of ITGB7, VCAM, read-out: Mean IC50 α4β1 KO

Sequence of α4β1 integrin (P13612 34-1032): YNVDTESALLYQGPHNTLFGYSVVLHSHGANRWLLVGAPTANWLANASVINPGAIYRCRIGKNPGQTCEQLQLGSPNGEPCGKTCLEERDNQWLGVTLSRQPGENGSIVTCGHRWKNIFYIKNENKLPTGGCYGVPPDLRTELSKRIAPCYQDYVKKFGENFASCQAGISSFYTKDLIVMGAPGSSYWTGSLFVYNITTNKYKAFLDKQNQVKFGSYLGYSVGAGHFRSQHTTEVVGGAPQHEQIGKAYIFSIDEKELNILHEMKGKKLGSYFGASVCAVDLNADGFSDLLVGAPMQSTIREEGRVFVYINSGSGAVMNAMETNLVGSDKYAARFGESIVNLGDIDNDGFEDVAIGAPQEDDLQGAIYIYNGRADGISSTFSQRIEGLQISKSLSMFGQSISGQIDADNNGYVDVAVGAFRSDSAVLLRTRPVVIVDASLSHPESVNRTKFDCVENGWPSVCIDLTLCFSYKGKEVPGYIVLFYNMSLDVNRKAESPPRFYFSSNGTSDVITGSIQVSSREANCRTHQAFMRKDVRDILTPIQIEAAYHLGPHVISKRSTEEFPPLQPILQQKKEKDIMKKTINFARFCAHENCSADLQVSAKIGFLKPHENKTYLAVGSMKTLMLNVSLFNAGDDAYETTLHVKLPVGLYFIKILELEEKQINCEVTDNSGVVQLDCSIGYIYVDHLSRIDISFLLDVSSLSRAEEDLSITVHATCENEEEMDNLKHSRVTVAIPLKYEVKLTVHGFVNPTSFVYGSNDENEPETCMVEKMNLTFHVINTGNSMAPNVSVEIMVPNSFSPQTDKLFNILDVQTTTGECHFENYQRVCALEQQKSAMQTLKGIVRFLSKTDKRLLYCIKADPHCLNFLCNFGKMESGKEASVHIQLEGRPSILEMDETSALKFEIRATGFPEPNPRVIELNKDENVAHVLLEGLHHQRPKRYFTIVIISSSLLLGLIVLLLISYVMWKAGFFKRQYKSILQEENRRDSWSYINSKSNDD
Sequence of α4β1 integrin (P05556 21-798): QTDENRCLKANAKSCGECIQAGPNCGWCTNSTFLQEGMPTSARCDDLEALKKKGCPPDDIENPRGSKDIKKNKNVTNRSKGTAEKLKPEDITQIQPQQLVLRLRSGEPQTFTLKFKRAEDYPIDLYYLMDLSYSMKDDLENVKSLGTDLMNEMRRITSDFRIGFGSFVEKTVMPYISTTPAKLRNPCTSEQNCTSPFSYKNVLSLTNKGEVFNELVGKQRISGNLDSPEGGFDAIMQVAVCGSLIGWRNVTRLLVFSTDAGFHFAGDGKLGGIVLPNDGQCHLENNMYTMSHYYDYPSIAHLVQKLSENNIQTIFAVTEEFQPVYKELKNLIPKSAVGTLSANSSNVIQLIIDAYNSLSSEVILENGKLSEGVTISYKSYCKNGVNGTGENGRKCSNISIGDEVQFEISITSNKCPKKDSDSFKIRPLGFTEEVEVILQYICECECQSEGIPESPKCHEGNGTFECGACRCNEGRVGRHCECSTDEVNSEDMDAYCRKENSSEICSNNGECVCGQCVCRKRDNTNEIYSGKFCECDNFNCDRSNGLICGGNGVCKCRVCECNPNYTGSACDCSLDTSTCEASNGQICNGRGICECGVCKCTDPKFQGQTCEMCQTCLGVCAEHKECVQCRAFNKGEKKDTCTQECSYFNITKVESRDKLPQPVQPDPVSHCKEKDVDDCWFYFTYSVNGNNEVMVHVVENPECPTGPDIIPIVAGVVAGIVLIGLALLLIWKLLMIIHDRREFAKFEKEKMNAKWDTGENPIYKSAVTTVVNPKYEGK
T1 sequence (P13612 34-1032): as the sequence (P13612 34-1032) above
T1 sequence (P26010 20-798): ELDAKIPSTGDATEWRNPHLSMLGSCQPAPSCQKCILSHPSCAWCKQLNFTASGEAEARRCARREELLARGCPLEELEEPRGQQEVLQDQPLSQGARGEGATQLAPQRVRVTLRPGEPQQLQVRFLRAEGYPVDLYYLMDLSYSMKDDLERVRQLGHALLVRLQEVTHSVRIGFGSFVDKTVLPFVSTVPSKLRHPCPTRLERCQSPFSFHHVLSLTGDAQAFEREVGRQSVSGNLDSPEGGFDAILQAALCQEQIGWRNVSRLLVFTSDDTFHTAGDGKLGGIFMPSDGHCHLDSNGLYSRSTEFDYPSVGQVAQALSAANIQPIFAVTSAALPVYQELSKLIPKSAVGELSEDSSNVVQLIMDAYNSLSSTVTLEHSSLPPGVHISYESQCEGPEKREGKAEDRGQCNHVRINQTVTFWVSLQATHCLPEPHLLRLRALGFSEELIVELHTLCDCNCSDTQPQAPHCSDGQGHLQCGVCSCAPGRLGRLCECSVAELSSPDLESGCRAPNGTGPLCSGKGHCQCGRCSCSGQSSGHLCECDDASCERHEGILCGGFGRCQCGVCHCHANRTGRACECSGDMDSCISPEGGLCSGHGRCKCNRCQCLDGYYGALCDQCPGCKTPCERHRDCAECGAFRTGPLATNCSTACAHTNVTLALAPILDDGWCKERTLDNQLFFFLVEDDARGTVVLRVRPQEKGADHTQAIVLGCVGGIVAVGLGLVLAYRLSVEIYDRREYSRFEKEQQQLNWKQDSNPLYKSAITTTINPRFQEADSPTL

Row | SMILES | IC50 [1] [nM] | IC50 [2, 4] [nM] | IC50 [3, 5] [nM] | IC50 ([1]; protocol not given) [nM] | IC50 [2, 6] [nM] | IC50 [3, 7] [nM]
1 | COc1ccc(CN(C)C)c(OC)c1-c1cccc2c(C[C@H](NC(=O)c3c(F)cccc3CN3CCC(F)(F)CC3)C(=O)O)cccc12 [Compound 452] | < 10 | < 10 | 100 to 1000 |  |  | 
2 | CN(C)Cc1cccc2c(-c3cccc4c(C[C@H](NC(=O)c5c(F)cc(N6CCOC[C@@H]6C(F)(F)F)cc5CN5CCCC5)C(=O)O)cccc34)nccc12 [Compound 433] | < 10 | < 10 | > 1000 |  |  | 
3 | Cc1cccnc1-c1ccc(F)c(C(=O)N[C@@H](Cc2cccc3c(-c4c(C(F)(F)F)c5ccccc5n(C)c4=O)cccc23)C(=O)O)c1F [Compound 316] | 100 to 1000 | 10 to 100 | > 1000 |  |  | 
4 | CCOCc1cc(OC)c(-c2cccc3c(C[C@H](NC(=O)c4c(C)cccc4F)C(=O)O)cccc23)c(OC)c1 [Compound 448] | < 10 | < 10 | 100 to 1000 |  |  | 
5 | O=C(N[C@@H](Cc1cccc2c(-n3cccc(C(F)(F)F)c3=O)cccc12)C(=O)O)c1c(F)cccc1F [Compound 1054] |  |  |  | 10 to 100 | 10 to 100 | > 1000
6 | CN(C)Cc1ccc2c(c1)c(C(F)(F)F)c(-c1cccc3c(C[C@H](NC(=O)c4c(F)cccc4F)C(=O)O)cccc13)c(=O)n2C [Compound 697] |  |  |  | < 10 | < 10 | 100 to 1000
7 | Cc1cccc(C)c1-c1ccc(F)c(C(=O)N[C@@H](Cc2cccc3c(-c4c(C(F)(F)F)c5ccccc5n(C)c4=O)cccc23)C(=O)O)c1F [Compound 307] | 100 to 1000 | 100 to 1000 | > 1000 |  |  | 
8 | Cn1c(=O)c(-c2cccc3c(C[C@H](NC(=O)c4c(F)cc(N5CCCCC5)cc4F)C(=O)O)cccc23)c(C(F)(F)F)c2ccccc21 [Compound 354] | 100 to 1000 | 100 to 1000 | > 1000 |  |  | 
9 | Cc1cccc(F)c1C(=O)N[C@@H](Cc1cccc2c(-c3c(C(F)(F)F)ccn(C)c3=O)cccc12)C(=O)O [Compound 460] | 10 to 100 | 10 to 100 | > 1000 |  |  | 
10 | CN(C)Cc1ccc2c(c1)c(C(F)(F)F)c(-c1cccc3c(C[C@H](NC(=O)c4c(F)cc(C(F)(F)F)cc4F)C(=O)O)cccc13)c(=O)n2C [Compound 699] |  |  |  | < 10 | 10 to 100 | 100 to 1000
11 | CN(C)c1ccc2c(c1)c(C(F)(F)F)c(-c1cccc3c(C[C@H](NC(=O)C4(C(F)(F)F)CCN(CC(F)(F)F)CC4)C(=O)O)cccc13)c(=O)n2C [Compound 454] | 10 to 100 | 10 to 100 | > 1000 |  |  | 
12 | CN(C)c1ccc2c(C(F)(F)F)c(-c3cccc4c(C[C@H](NC(=O)c5c(F)cccc5F)C(=O)O)cccc34)c(=O)n(C)c2c1 [Compound 719] |  |  |  | 100 to 1000 | > 1000 | > 1000
13 | Cn1c(=O)c(-c2cccc3c(C[C@H](NC(=O)c4c(F)cccc4CN4CCC(F)(F)C4)C(=O)O)cccc23)c(C(F)(F)F)c2ccccc21 [Compound 456] | 10 to 100 | 10 to 100 | > 1000 |  |  | 
14 | Cn1c(=O)c(-c2cccc3c(C[C@H](NC(=O)c4c(F)cc(C5CCOCC5)cc4F)C(=O)O)cccc23)c(C(F)(F)F)c2ccccc21 [Compound 373] | 100 to 1000 | 100 to 1000 | > 1000 |  |  | 
15 | CN(C)Cc1cccc2c(-c3cccc4c(C[C@H](NC(=O)[C@]5(C)CC[C@H](N6CCOC[C@@H]6C(F)(F)F)CC5)C(=O)O)cccc34)nccc12 (single isomer, unassigned) [Compound 419] | 10 to 100 | 10 to 100 | > 1000 |  |  | 
16 | Cn1c(=O)c(-c2cccc3c(C[C@H](NC(=O)[C@]4(C(F)(F)F)CC[C@@H](N5CCOC[C@@H]5C(F)(F)F)CC4)C(=O)O)cccc23)c(C(F)(F)F)c2ccccc21 [Compound 422] | 10 to 100 | 100 to 1000 | > 1000 |  |  | 

Row | SMILES | IC50 [1] [nM] | IC50 [2, 4] [nM] | IC50 [3, 5] [nM] | IC50 ([1]; protocol not given) [nM] | IC50 [2, 6] [nM] | IC50 [3, 7] [nM]
17 | Cn1c(=O)c(-c2cccc3c(C[C@H](NC(=O)c4c(F)cc(N5CC(C(F)(F)F)C5)cc4F)C(=O)O)cccc23)c(C(F)(F)F)c2ccccc21 [Compound 388] | 100 to 1000 | 100 to 1000 |  |  |  | 
18 | COCCc1cc(F)c(C(=O)N[C@@H](Cc2cccc3c(-c4c(C(F)(F)F)c5ccccc5n(C)c4=O)cccc23)C(=O)O)c(F)c1 [Compound 368] | 100 to 1000 | 100 to 1000 |  |  |  | 
19 | Cn1c(=O)c(-c2cccc3c(C[C@H](NC(=O)c4c(F)cc([C@H]5C[C@@H](N(C)C)C5)cc4F)C(=O)O)cccc23)c(C(F)(F)F)c2ccccc21 [Compound 416] | 100 to 1000 | 100 to 1000 |  |  |  | 
20 | Cn1c(=O)c(-c2cccc3c(C[C@H](NC(=O)[C@]4(C)CC[C@@H](N5CCS(=O)(=O)CC5)CC4)C(=O)O)cccc23)c(C(F)(F)F)c2ccccc21 [Compound 403] | 10 to 100 | 10 to 100 | > 1000 |  |  | 
21 | CN(C)c1ccc2c(c1)c(C(F)(F)F)c(-c1cccc3c(C[C@H](NC(=O)[C@]4(C)CC[C@@H](N5CCC(F)(F)CC5)CC4)C(=O)O)cccc13)c(=O)n2C [Compound 411] | 100 to 1000 | 100 to 1000 | > 1000 |  |  | 
22 | Cc1c(F)ccc(F)c1C(=O)N[C@@H](Cc1cccc2c(-c3c(C(F)(F)F)c4ccccc4n(C)c3=O)cccc12)C(=O)O [Compound 444] | 10 to 100 | 10 to 100 | > 1000 |  |  | 
23 | Cn1c(=O)c(-c2cccc3c(C[C@H](NC(=O)C4(C(F)(F)F)CCN(CC(F)(F)F)CC4)C(=O)O)cccc23)c(C(F)(F)F)c2ccccc21 [Compound 352] | 10 to 100 | 10 to 100 | 100 to 1000 |  |  | 
24 | Cc1cccc(F)c1C(=O)N[C@@H](Cc1cccc2c(-c3c(C(F)(F)F)c4cc(N(C)C)ccc4n(C)c3=O)cccc12)C(=O)O [Compound 449] | 100 to 1000 | 100 to 1000 | > 1000 |  |  | 
25 | CN(C)c1ccc2c(c1)c(C(F)(F)F)c(-c1cccc3c(C[C@H](NC(=O)[C@]4(C)CC[C@H](N5CCOC[C@@H]5C(F)(F)F)CC4)C(=O)O)cccc13)c(=O)n2C (single isomer, unassigned) [Compound 410] | 100 to 1000 | 100 to 1000 |  |  |  | 
26 | Cn1c(=O)c(-c2cccc3c(C[C@H](NC(=O)c4c(F)cc(NC5(C(F)F)CC5)cc4F)C(=O)O)cccc23)c(C(F)(F)F)c2ccccc21 [Compound 387] | 100 to 1000 | 100 to 1000 |  |  |  | 
27 | Cc1cncc(C)c1-c1cc(F)c(C(=O)N[C@@H](Cc2cccc3c(-c4c(C(F)(F)F)c5ccccc5n(C)c4=O)cccc23)C(=O)O)c(F)c1 [Compound 305] | 100 to 1000 | > 1000 |  |  |  | 
28 | CN(C)c1ccc2c(c1)c(C(F)(F)F)c(-c1cccc3c(C[C@H](NC(=O)[C@]4(C)CC[C@@H](N5CCOC[C@@H]5C(F)(F)F)CC4)C(=O)O)cccc13)c(=O)n2C [Compound 409] | 100 to 1000 | 100 to 1000 |  |  |  | 
29 | Cn1c(=O)c(-c2cccc3c(C[C@H](NC(=O)c4c(F)cc(N5CCOC[C@@H]5c5ccccc5)cc4F)C(=O)O)cccc23)c(C(F)(F)F)c2ccccc21 [Compound 336] | 100 to 1000 | 100 to 1000 |  |  |  | 
30 | Cc1cccc(F)c1C(=O)N[C@@H](Cc1cccc2c(-c3c(C(F)(F)F)c4ccccc4n(C)c3=O)cccc12)C(=O)O [Compound 355] | 10 to 100 | 10 to 100 | > 1000 |  |  | 
31 | Cn1c(=O)c(-c2cccc3c(C[C@H](NC(=O)c4c(F)cc(N5CC6C(C5)C6(F)F)cc4F)C(=O)O)cccc23)c(C(F)(F)F)c2ccccc21 (some centres unmarked) [Compound 389] | 100 to 1000 | 100 to 1000 |  |  |  | 
32 | Cn1c(=O)c(-c2cccc3c(C[C@H](NC(=O)c4c(F)cc(C5CCCOC5)cc4F)C(=O)O)cccc23)c(C(F)(F)F)c2ccccc21 (some centres unmarked) [Compound 374] | 100 to 1000 | 100 to 1000 |  |  |  | 
